The values that follow come from patent US5304540A, “Pharmaceutical bacteriocin compositions and methods for using the same” (Applied Microbiology, Inc., priority 1993, dated 1994).

Like-named read-outs stand apart in the source and are kept apart here.

Assay [1] has as its system Helicobacter pylori.
Assay [2] relates to Escherichia coli. Kind of assay: Germicidal suspension assay, E. coli.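 On all read-outs here: surviving cells were scored as colonies on nutrient agar after 24 h at 37° C, survival given as percent of untreated controls.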 Type of assay: cell-based. Conditions: for % survival at 1 min: 37° C., nisin 100 μg/ml and/or EDTA 1.0 mM where present.
Method: E. coli cells from an overnight Trypticase soy nutrient agar (TSA) were resuspended to a density measured as an absorbance of 1.0 at 600 nm in sterile ddH2 O. The reaction of the cells with each of the bactericidal test formulations analyzed was started by addition of 30 μl of cells to 970 μl of test formulation. The reaction mixture was incubated at 37° C for at least 1 minute and then centrifuged in a microfuge for 1 minute. The cell pellet was washed by resuspension in 1 ml of neutralization buffer. (The neutralization buffer: 50 mM Tris-HCl, pH 7.0, 5 mM MgSO4, 20 mM CaCl2, 0.1 M NaCl and 0.1% gelatin was prepared by first making Tris buffer and adjusting the pH. The salts and gelatin were then added and the solution stirred with heat until the solution was clear. The solution was then autoclaved for 20 min. The neutralization buffer was used without dilution.) The cells were centrifuged in a microfuge for 1 minute and resuspended in 1 ml of neutralization buffer. The viable count was determined by spreading 100 μl of bacterial suspension and serial dilutions thereof in neutralization buffer on nutrient agar and scoring surviving colonies after 24 h at 37° C. Percent survival relative to untreated controls was calculated from the scored values.

Consider `O=C(O)CC(O)(CC(=O)O)C(=O)O` [Citrate], for which the “% survival at 5 min” value was 0.14% in assay [1] (strain ATCC43504, 0.1% citrate adjusted to pH 2.5, nisin 100 μg/ml where present, 37° C.); < 0.004% in assay [1] (strain ATCC43504, 0.1% citrate adjusted to pH 3.0, nisin 100 μg/ml where present, 37° C.); < 0.004% in assay [1] (strain ATCC43504, 0.1% citrate adjusted to pH 3.5, nisin 100 μg/ml where present, 37° C.); 0.36% in assay [1] (strain ATCC43504, 0.1% citrate adjusted to pH 4.0, nisin 100 μg/ml where present, 37° C.); 68.5% in assay [1] (strain ATCC43504, 0.1% citrate adjusted to pH 5.0, nisin 100 μg/ml where present, 37° C.); 0.027% in assay [1] (strain ATCC43504, 0.3% citrate adjusted to pH 2.5, nisin 100 μg/ml where present, 37° C.). Besides, the “% survival at 5 min” value was < 0.027% in assay [1] (strain ATCC43504, 0.3% citrate adjusted to pH 3.0, nisin 100 μg/ml where present, 37° C.); 29.7% in assay [1] (strain ATCC43504, 0.3% citrate adjusted to pH 3.5, nisin 100 μg/ml where present, 37° C.); 17.6% in assay [1] (strain ATCC43504, 0.3% citrate adjusted to pH 4.0, nisin 100 μg/ml where present, 37° C.); 100% in assay [1] (strain ATCC43504, 0.3% citrate adjusted to pH 5.0, nisin 100 μg/ml where present, 37° C.); 83.6% in assay [1] (strain ATCC43504, pH 5.0, citrate 0.1% w/v, nisin 100 μg/ml where present, first of two experiments (initial 1.40 × 10^5 cfu/ml)); 25.8% in assay [1] (strain ATCC43504, pH 5.0, citrate 0.1% w/v, nisin 100 μg/ml where present, second of two experiments (initial 3.26 × 10^5 cfu/ml)). Also, the “% survival at 5 min” value in assay [1] (strain ATCC43504, pH 5.0, citrate 0.3% w/v, nisin 100 μg/ml where present, first of two experiments (initial 1.40 × 10^5 cfu/ml)) was 42.9%; in assay [1] (strain ATCC43504, pH 5.0, citrate 0.3% w/v, nisin 100 μg/ml where present, second of two experiments (initial 3.26 × 10^5 cfu/ml)), 4.39%; in assay [1] (strain ATCC43504, pH 5.0, citrate 1.0% w/v, nisin 100 μg/ml where present, first of two experiments (initial 1.40 × 10^5 cfu/ml)), 22.1%; in assay [1] (strain ATCC43504, pH 5.0, citrate 1.0% w/v, nisin 100 μg/ml where present, second of two experiments (initial 3.26 × 10^5 cfu/ml)), 50.9%; in assay [1] (strain ATCC43504, pH 7.0, citrate 0.1% w/v, nisin 100 μg/ml where present, initial 9.62 × 10^4 cfu/ml) it was 17.7%; in assay [1] (strain ATCC43504, pH 7.0, citrate 0.3% w/v, nisin 100 μg/ml where present, initial 9.62 × 10^4 cfu/ml) it was 8.94%. Moreover, the “% survival at 5 min” value is on record as 0.82% in assay [1] (strain ATCC43504, pH 7.0, citrate 1.0% w/v, nisin 100 μg/ml where present, initial 9.62 × 10^4 cfu/ml); < 5.0 × 10^-4% in assay [1] (strain ATCC43579, 0.1% citrate adjusted to pH 2.5, nisin 100 μg/ml where present, 37° C.); 1.1 × 10^-3% in assay [1] (strain ATCC43579, 0.1% citrate adjusted to pH 3.0, nisin 100 μg/ml where present, 37° C.); 0.18% in assay [1] (strain ATCC43579, 0.1% citrate adjusted to pH 3.5, nisin 100 μg/ml where present, 37° C.); 9.56% in assay [1] (strain ATCC43579, 0.1% citrate adjusted to pH 4.0, nisin 100 μg/ml where present, 37° C.); 97.2% in assay [1] (strain ATCC43579, 0.1% citrate adjusted to pH 5.0, nisin 100 μg/ml where present, 37° C.). In addition, the “% survival at 5 min” value in assay [1] (strain ATCC43579, pH 5.0, 0.1% citrate, nisin 0, 37° C., initial 3.19 × 10^7 cfu/ml) is on record as 86.2%; in assay [1] (strain ATCC43579, pH 5.0, citrate 0.1% w/v, nisin 100 μg/ml where present, initial 1.04 × 10^4 cfu/ml), 100%; in assay [1] (strain ATCC43579, pH 5.0, citrate 0.3% w/v, nisin 100 μg/ml where present, initial 1.04 × 10^4 cfu/ml), 100%; in assay [1] (strain ATCC43579, pH 5.0, citrate 1.0% w/v, nisin 100 μg/ml where present, initial 1.04 × 10^4 cfu/ml), 100%; in assay [1] (strain ATCC43579, pH 7.0, citrate 0.1% w/v, nisin 100 μg/ml where present), 12.1%; in assay [1] (strain ATCC43579, pH 7.0, citrate 0.3% w/v, nisin 100 μg/ml where present), 0.26%. In assay [1] (strain ATCC43579, pH 7.0, citrate 1.0% w/v, nisin 100 μg/ml where present), the “% survival at 5 min” value is recorded as 0.02%. Moreover, the “% survival at 1 min” value is reported as 100% in assay [2] (0.1% w/v citrate pH 3.5, initial 5 × 10^7 cfu/ml); 56.3% in assay [2] (0.3% w/v citrate pH 3.5, initial 5 × 10^7 cfu/ml); 72.9% in assay [2] (1.0% w/v citrate pH 3.5, initial 5 × 10^7 cfu/ml); 100% in assay [2] (3.0% w/v citrate pH 3.5, initial 5 × 10^7 cfu/ml). The “survival of E. coli on exposure to the agent by itself” value in assay [2] (agent by itself) was “unaffected”.
In the case of `CC(O)C(=O)O` (stereo not drawn) [Lactate, lactate], the “% survival at 1 min” value is 22.2% in assay [2] (0.1% w/v lactate pH 3.5, initial 5 × 10^7 cfu/ml); 46.7% in assay [2] (0.3% w/v lactate pH 3.5, initial 5 × 10^7 cfu/ml); 35.6% in assay [2] (1.0% w/v lactate pH 3.5, initial 5 × 10^7 cfu/ml); 4.2% in assay [2] (3.0% w/v lactate pH 3.5, initial 5 × 10^7 cfu/ml).
In the case of `CC(=O)O` [Acetate], the “% survival at 1 min” value in assay [2] (0.1% w/v acetate pH 3.5, initial 2 × 10^7 cfu/ml) is listed as 55%; in assay [2] (0.3% w/v acetate pH 3.5, initial 2 × 10^7 cfu/ml) it was 80%; in assay [2] (1.0% w/v acetate pH 3.5, initial 2 × 10^7 cfu/ml) it was 90%; in assay [2] (3.0% w/v acetate pH 3.5, initial 2 × 10^7 cfu/ml) it was 10.1%.
Consider `O=C(O)CCC(=O)O` [Succinate, succinate], for which the “% survival at 1 min” value in assay [2] (0.1% w/v succinate pH 3.5, initial 3.4 × 10^6 cfu/ml) is recorded as 85.5%; in assay [2] (0.3% w/v succinate pH 3.5, initial 3.4 × 10^6 cfu/ml) it was 29.9%; in assay [2] (1.0% w/v succinate pH 3.5, initial 3.4 × 10^6 cfu/ml), 36.7%; in assay [2] (3.0% w/v succinate pH 3.5, initial 3.4 × 10^6 cfu/ml) it was 13.9%.
